Test results published in patent publication US20200068890A1 (Person to Whom the Inventor is Obligated to Assign, priority 2017, published 2020).

What was measured:
A. thaliana DHDPS = test system: T1, A. thaliana DHDPS; test: DHDPS-DHDPR coupled assay, dose response inhibitor assay; assay type: biochemical, Arabidopsis thaliana
T1 construct: AtDHDPS|10|0.00008; no borders, domain or tags given

[1] = test system: human kidney cells (HEK293); test: MTT viability assay; settings: for % Viability Remaining 1 / % Viability Remaining 2 / % Viability Remaining 3: 48 hrs; for toxicity to HEK293 cells (in words): HEK293, MTT, up to 400 μM (Defensin 100 μM)
Description: (§1) Cells were harvested and resuspended in growth media (5-10 ml) to count. Cells were diluted to the appropriate concentration (5×10^3), and seeded into 96-well plates as follows: (a) 50 μl of cells per well, (b) 100 μl of growth media in the Blank wells, (c) 100 μl PBS in outer wells (to prevent dehydration of media from the cells). Cells were incubated overnight at 37° C. (5% CO2).
(§2) Compounds were prepared as serial dilutions in growth media. Each treatment concentration was performed in triplicate. 50 μl/well of prepared compound was added to cells.
(§3) A no treatment triplicate (100% viability) was also included by adding 50 μl of growth media to cells. Plates were returned to the incubator for 48 hrs.
(§4) MTT powder in 1×PBS was prepared at 5 mg/ml and filter sterilised. MTT was added to serum-free media to a final concentration of 1 mg/ml. 100 μl of the MTT solution (1 mg/ml) was added to each well, including 0 μM and blank wells. Plates were incubated at 37° C. in incubator for 3 hrs. Following incubation, the media was removed from wells without disrupting the purple crystals formed. 100 μl of DMSO was added to each well using a multichannel pipette. The plates were shaken on the plate shaker until all the crystals have dissolved. The absorbance was measured at 570 nm using a plate reader. The data was analysed using Microsoft Excel. For each treatment concentration the average was calculated, the blank was subtracted and the cell viability was determined as a percentage of the no treatment control (DMSO vehicle control).

[2] = test system: human liver cells (HepG2); test: MTT viability assay; settings: for % viability 1 / % viability 2 / % viability 3: 48 hrs; for toxicity to HepG2 cells (in words): HepG2, MTT, up to 400 μM (Defensin 100 μM)
Description: as §1, §2, §3, §4

[3] = test system: Gram-positive and Gram-negative bacterial species; test: Broth microdilution MIC, panel summary; assay type: cell-based; settings: read-out: MIC values
Description: Assays were carried out by a broth microdilution method using a 96-well plate according to guidelines defined by the European Committee on Antimicrobial Susceptibility Testing as described here. Overnight cultures of strains were grown in tryptic soy broth (TSB) at 37° C. The overnight cultures were diluted to a concentration of 1×10^6 bacteria/ml (OD600=0.01) in TSB media. To each well on 96 well plates, 100 μl of bacterially infected media at a concentration of 1×10^6/ml and compounds at various concentrations were added. An uninfected control (i.e. no bacteria) was also included. The plates were incubated at 37° C. wrapped in parafilm for 20 hrs. The growth was assessed by measuring the absorbance at 600 nm. The minimum inhibitory concentration (MIC) was determined to be the lowest concentration of compound that inhibits visible bacterial growth.

Structure (SMILES): COc1ccc(/C=C2\SC(=O)N(CC(=O)O)C2=O)cc1 [Compound 5, (Z)-2-(5-(4-Methoxybenzylidene)-2,4-dioxothiazolidin-3-yl)acetic Acid]
- IC50 (A. thaliana DHDPS): 46.9 µM
- % Viability Remaining 1 ([1]; HEK293, 12.5 μM): 105%
- % Viability Remaining 2 ([1]; HEK293, 12.5 μM): 103%
- % Viability Remaining 3 ([1]; HEK293, 12.5 μM): 85.0%
- % Viability Remaining 1 ([1]; HEK293, 25 μM): 105%
- % Viability Remaining 2 ([1]; HEK293, 25 μM): 103%
- % Viability Remaining 3 ([1]; HEK293, 25 μM): 85.0%
- % Viability Remaining 1 ([1]; HEK293, 50 μM): 92.3%
- % Viability Remaining 2 ([1]; HEK293, 50 μM): 101%
- % Viability Remaining 3 ([1]; HEK293, 50 μM): 90.8%
- % Viability Remaining 1 ([1]; HEK293, 100 μM): 106%
- % Viability Remaining 2 ([1]; HEK293, 100 μM): 103%
- % Viability Remaining 3 ([1]; HEK293, 100 μM): 82.8%
- % Viability Remaining 1 ([1]; HEK293, 200 μM): 82.7%
- % Viability Remaining 2 ([1]; HEK293, 200 μM): 86.0%
- % Viability Remaining 3 ([1]; HEK293, 200 μM): 84.9%
- % Viability Remaining 1 ([1]; HEK293, 400 μM): 96.4%
- % Viability Remaining 2 ([1]; HEK293, 400 μM): 91.3%
- % Viability Remaining 3 ([1]; HEK293, 400 μM): 89.1%
- toxicity to HEK293 cells (in words) [1]: effectively nontoxic
- % viability 1 ([2]; HepG2, 12.5 μM): 111%
- % viability 2 ([2]; HepG2, 12.5 μM): 107%
- % viability 3 ([2]; HepG2, 12.5 μM): 105%
- % viability 1 ([2]; HepG2, 25 μM): 111%
- % viability 2 ([2]; HepG2, 25 μM): 106%
- % viability 3 ([2]; HepG2, 25 μM): 105%
- % viability 1 ([2]; HepG2, 50 μM): 102%
- % viability 2 ([2]; HepG2, 50 μM): 91.9%
- % viability 3 ([2]; HepG2, 50 μM): 104%
- % viability 1 ([2]; HepG2, 100 μM): 111%
- % viability 2 ([2]; HepG2, 100 μM): 105%
- % viability 3 ([2]; HepG2, 100 μM): 84.8%
- % viability 1 ([2]; HepG2, 200 μM): 78.7%
- % viability 2 ([2]; HepG2, 200 μM): 110%
- % viability 3 ([2]; HepG2, 200 μM): 94.4%
- % viability 1 ([2]; HepG2, 400 μM): 82.1%
- % viability 2 ([2]; HepG2, 400 μM): 84.9%
- % viability 3 ([2]; HepG2, 400 μM): 92.5%
- toxicity to HepG2 cells (in words) [2]: effectively nontoxic

Structure (SMILES): COc1ccccc1/C=C1\SC(=O)N(CC(=O)O)C1=O [Compound 3, (Z)-2-(5-(2-Methoxybenzylidene)-2,4-dioxothiazolidin-3-yl)acetic Acid]
- IC50 (A. thaliana DHDPS): 70.5 µM
- % Viability Remaining 1 ([1]; HEK293, 12.5 μM): 73.4%
- % Viability Remaining 2 ([1]; HEK293, 12.5 μM): 104%
- % Viability Remaining 3 ([1]; HEK293, 12.5 μM): 99.0%
- % Viability Remaining 1 ([1]; HEK293, 25 μM): 100%
- % Viability Remaining 2 ([1]; HEK293, 25 μM): 86.3%
- % Viability Remaining 3 ([1]; HEK293, 25 μM): 83.8%
- % Viability Remaining 1 ([1]; HEK293, 50 μM): 78.5%
- % Viability Remaining 2 ([1]; HEK293, 50 μM): 80.4%
- % Viability Remaining 3 ([1]; HEK293, 50 μM): 92.2%
- % Viability Remaining 1 ([1]; HEK293, 100 μM): 84.2%
- % Viability Remaining 2 ([1]; HEK293, 100 μM): 93.0%
- % Viability Remaining 3 ([1]; HEK293, 100 μM): 91.6%
- % Viability Remaining 1 ([1]; HEK293, 200 μM): 82.5%
- % Viability Remaining 2 ([1]; HEK293, 200 μM): 89.8%
- % Viability Remaining 3 ([1]; HEK293, 200 μM): 94.3%
- % Viability Remaining 1 ([1]; HEK293, 400 μM): 72.3%
- % Viability Remaining 2 ([1]; HEK293, 400 μM): 106%
- % Viability Remaining 3 ([1]; HEK293, 400 μM): 85.6%
- toxicity to HEK293 cells (in words) [1]: effectively nontoxic
- % viability 1 ([2]; HepG2, 12.5 μM): 110%
- % viability 2 ([2]; HepG2, 12.5 μM): 104%
- % viability 3 ([2]; HepG2, 12.5 μM): 92.2%
- % viability 1 ([2]; HepG2, 25 μM): 80.2%
- % viability 2 ([2]; HepG2, 25 μM): 86.4%
- % viability 3 ([2]; HepG2, 25 μM): 91.4%
- % viability 1 ([2]; HepG2, 50 μM): 106.4%
- % viability 2 ([2]; HepG2, 50 μM): 89.9%
- % viability 3 ([2]; HepG2, 50 μM): 98.7%
- % viability 1 ([2]; HepG2, 100 μM): 80.2%
- % viability 2 ([2]; HepG2, 100 μM): 89.3%
- % viability 3 ([2]; HepG2, 100 μM): 82.2%
- % viability 1 ([2]; HepG2, 200 μM): 84.2%
- % viability 2 ([2]; HepG2, 200 μM): 96.5%
- % viability 3 ([2]; HepG2, 200 μM): 92.9%
- % viability 1 ([2]; HepG2, 400 μM): 76.2%
- % viability 2 ([2]; HepG2, 400 μM): 87.9%
- % viability 3 ([2]; HepG2, 400 μM): 87.5%
- toxicity to HepG2 cells (in words) [2]: effectively nontoxic
- MIC [3]: > 64 µg/mL
